Columns and labels:
[1] = target: T1, KRAS-WT and SOS1 proteins (Homo sapiens, UniProt Q07889); experiment: KRAS-WT/SOS1 binding assay (HTRF); conditions: Tag1-SOS1 / Tag2-KRAS-WT, 10 μM GTP, read-out: Activity Data in Kras: SOS1 Assay, Wild Type
T1 construct: purchased Cisbio 63ADK000CB15PEG
T1 sequence (Q07889 1-1333): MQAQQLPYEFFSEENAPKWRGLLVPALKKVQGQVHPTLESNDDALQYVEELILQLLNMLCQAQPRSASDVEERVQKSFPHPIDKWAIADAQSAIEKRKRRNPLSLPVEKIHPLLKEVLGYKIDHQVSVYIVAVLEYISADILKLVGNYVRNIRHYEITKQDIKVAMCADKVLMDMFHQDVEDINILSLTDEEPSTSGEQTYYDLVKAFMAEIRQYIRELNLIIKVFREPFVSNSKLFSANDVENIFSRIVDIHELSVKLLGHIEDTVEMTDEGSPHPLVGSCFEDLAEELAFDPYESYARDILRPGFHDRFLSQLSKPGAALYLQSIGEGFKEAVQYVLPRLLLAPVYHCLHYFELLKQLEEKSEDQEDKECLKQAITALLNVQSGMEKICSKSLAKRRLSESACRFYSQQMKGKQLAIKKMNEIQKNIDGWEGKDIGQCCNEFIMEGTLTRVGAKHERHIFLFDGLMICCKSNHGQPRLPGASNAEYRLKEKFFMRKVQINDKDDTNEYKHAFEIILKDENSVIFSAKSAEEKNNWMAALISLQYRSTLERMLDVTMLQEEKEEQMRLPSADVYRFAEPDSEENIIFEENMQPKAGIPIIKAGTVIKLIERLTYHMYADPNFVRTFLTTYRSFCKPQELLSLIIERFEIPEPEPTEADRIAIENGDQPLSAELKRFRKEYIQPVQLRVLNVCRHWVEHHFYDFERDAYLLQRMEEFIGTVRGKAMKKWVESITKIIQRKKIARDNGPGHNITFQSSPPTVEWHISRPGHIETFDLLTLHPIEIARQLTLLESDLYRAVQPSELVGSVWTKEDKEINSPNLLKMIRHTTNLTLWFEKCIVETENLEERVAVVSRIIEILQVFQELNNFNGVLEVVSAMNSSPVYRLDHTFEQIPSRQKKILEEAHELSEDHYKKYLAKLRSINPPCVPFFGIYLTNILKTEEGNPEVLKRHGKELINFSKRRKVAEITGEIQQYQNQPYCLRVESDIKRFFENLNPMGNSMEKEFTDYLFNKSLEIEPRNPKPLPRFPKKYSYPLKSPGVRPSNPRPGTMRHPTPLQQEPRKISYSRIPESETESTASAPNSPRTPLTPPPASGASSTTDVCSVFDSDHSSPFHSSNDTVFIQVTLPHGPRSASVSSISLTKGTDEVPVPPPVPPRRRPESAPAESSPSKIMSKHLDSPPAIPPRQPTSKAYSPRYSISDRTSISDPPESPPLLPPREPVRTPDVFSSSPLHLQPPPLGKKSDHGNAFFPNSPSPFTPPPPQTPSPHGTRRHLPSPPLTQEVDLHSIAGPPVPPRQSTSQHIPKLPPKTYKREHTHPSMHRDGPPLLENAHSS
Protocol: (§1) KRAS-WT (or G12C/G12D/G12V)/SOS1 Binding Assay
(§2) Low IC50 values are indicative of high potency of the SOS1 inhibitor compounds in this assay setting.
(§3) The KRAS-WT (or G12C/G12D/G12V)/SOS1 binding assay is performed using an assay kit (Cisbio, Cat #63ADK000CB15PEG or 63ADK000CB16PEG/63ADK000CB17PEG/63ADK000CB18PEG) according to the procedure recommended by the manufacturer. • 1) Thaw and prepare the working solution of Tag1-SOS1 protein and Tag2-KRAS-WT (or G12C/G12D/G12V) protein with final concentration of 10 μM GTP (Sigma, Cat #V900868). • 2) Thaw and prepare the working solution of anti-Tag1-Tb^3+ anti-Tag2-XL665. • 3) Dispense 2 μL of serially diluted compound, 4 μL of Tag1-SOS1 protein and 4 μL of Tag2-KRAS-WT (or G12C/G12D/G12V) protein with GTP into a ProxiPlate-384 Plus, white 384-shallow well microplate (PerkinElmer, Cat #6008280). • 4) Incubate the plate for 15 minutes at room temperature. • 5) Dispense 10 μL of pre-mixed anti-Tag1-Tb^3+ and anti-Tag2-XL665 into the plate. • 6) Seal the plate and incubate for 2 hours at room temperature. • 7) Remove the plate sealer and read on PHERAstar FS (BMG LABTECH, PHERAstar FS). • 8) Calculate the ratio of the acceptor and donor emission signals for each individual well using the following equation.
(§4) [formula] • 9) IC50 values are fitted and calculated by HTRF signal values and log of compound concentrations to nonlinear regression [Log (inhibitor) vs. Response−Variable Slope (four parameters)] using the GraphPad Prism 8.0.

[2] = target: T2, KRAS G12D and SOS1 proteins (Homo sapiens, UniProt Q07889); experiment: KRAS-G12D/SOS1 binding assay (HTRF); conditions: Tag1-SOS1 / Tag2-KRAS G12D, 10 μM GTP
T2 construct: purchased Cisbio 63ADK000CB17PEG
T2 sequence (Q07889 1-1333): T1 sequence (Q07889 1-1333)
Protocol: as §1, §2, §3, §4

| Compound | IC50 [1] [nM] | IC50 [2] [nM] |
| --- | --- | --- |
| Cc1nc(N[C@H](C)c2cccc3c2CCC3(F)F)c2cc(O[C@H]3CCOC3)c3c(cnn3C)c2n1 [Example 36, N-((R)-1-(1,1-difluoro-2,3-dihydro-1H-inden-4-yl)ethyl)-2,7-dimethyl-6-(((S)-tetrahydrofuran-3-yl)oxy)-7H-pyrazolo[3,4-h]quinazolin-4-amine] | < 100 | < 100 |
| C[C@@H](Nc1nc2ccnn2c2cc(=O)n(C3CCN(C)CC3)cc12)c1cccc(C(F)(F)CO)c1 [Example 76, (R)-5-((1-(3-(1,1-difluoro-2-hydroxyethyl)phenyl)ethyl)amino)-7-(1-methylpiperidin-4-yl)pyrazolo[1,5-a]pyrido[3,4-e]pyrimidin-8(7H)-one] | < 100 | < 100 |
| CC(=O)N1CCC(c2cc3c(N[C@H](C)c4cccc(C(F)(F)CO)c4)nc(C)nc3n3cnnc23)CC1 [Example 12, (R)-1-(4-(4-((1-(3-(1,1-difluoro-2-hydroxyethyl)phenyl)ethyl)amino)-2-methyl-[1,2,4]triazolo[4′,3′:1,6]pyrido[2,3-d]pyrimidin-6-yl)piperidin-1-yl)ethan-1-one] | < 100 | < 100 |
| CC(=O)N1CCC(Oc2cc3c(N[C@H](C)c4cccc5c4CCC5(F)F)nc(C)nc3c3cnn(C)c23)CC1 [Example 40, (R)-1-(4-((4-((1-(1,1-difluoro-2,3-dihydro-1H-inden-4-yl)ethyl)amino)-2,7-dimethyl-7H-pyrazolo[3,4-h]quinazolin-6-yl)oxy)piperidin-1-yl)ethan-1-one] | < 100 | < 100 |
| Cc1nc(N[C@H](C)c2cccc(C(F)(F)CO)c2)c2cc(O[C@H]3CCOC3)c3nncn3c2n1 [Example 20, 2,2-difluoro-2-(3-((R)-1-((2-methyl-6-(((S)-tetrahydrofuran-3-yl)oxy)-[1,2,4]triazolo[4′,3′:1,6]pyrido[2,3-d]pyrimidin-4-yl)amino)ethyl)phenyl)ethan-1-ol] | < 100 | 100 to 500 |
| CC(=O)N1CCC(c2cc3c(N[C@H](C)c4cccc(C(F)(F)F)c4)nc(C)nc3n3cnnc23)CC1 [Example 9, (R)-1-(4-(2-methyl-4-((1-(3-(trifluoromethyl)phenyl)ethyl)amino)-[1,2,4]triazolo[4′,3′:1,6]pyrido[2,3-d]pyrimidin-6-yl)piperidin-1-yl)ethan-1-one] | < 100 | < 100 |
| COc1cc2c(cc1O[C@H]1CCOC1)c(N[C@H](C)c1cc(N)cc(C(F)(F)F)c1)nc1ccnn12 [Example 55, N-[(1R)-1-[3-amino-5-(trifluoromethyl)phenyl]ethyl]-8-methoxy-7-[(3S)-oxolan-3-yloxy]pyrazolo[1,5-a]quinazolin-5-amine] | 100 to 500 | 100 to 500 |
| COCC(=O)N1CCC(c2cc3c(N[C@H](C)c4cccc(C(F)(F)CO)c4)nc(C)nc3n3cnnc23)CC1 [Example 11, (R)-1-(4-(4-((1-(3-(1,1-difluoro-2-hydroxyethyl)phenyl)ethyl)amino)-2-methyl-[1,2,4]triazolo[4′,3′:1,6]pyrido[2,3-d]pyrimidin-6-yl)piperidin-1-yl)-2-methoxyethan-1-one] | < 100 | < 100 |
| C[C@@H](Nc1nc2ccnn2c2cc(=O)n(C3(C)CC3)cc12)c1cccc2c1CCC2(F)F [Example 62, (R)-5-((1-(1,1-difluoro-2,3-dihydro-1H-inden-4-yl)ethyl)amino)-7-(1-methylcyclopropyl)pyrazolo[1,5-a]pyrido[3,4-e]pyrimidin-8(7H)-one] | < 100 | < 100 |
| CC(=O)N1CCC(c2cc3c(N[C@H](C)c4cccc5c4CCC5(F)F)nc(C)nc3n3cnnc23)CC1 [Example 7, (R)-1-(4-(4-((1-(1,1-difluoro-2,3-dihydro-1H-inden-4-yl)ethyl)amino)-2-methyl-[1,2,4]triazolo[4′,3′:1,6]pyrido[2,3-d]pyrimidin-6-yl)piperidin-1-yl)ethanone] | < 100 | < 100 |
| C[C@@H](Nc1nc2ccnn2c2cc(=O)n([C@H]3CCOC3)cc12)c1cccc(C(F)(F)CO)c1 [Example 72, 5-(((R)-1-(3-(1,1-difluoro-2-hydroxyethyl)phenyl)ethyl)amino)-7-((S)-tetrahydrofuran-3-yl)pyrazolo[1,5-a]pyrido[3,4-e]pyrimidin-8(7H)-one] | < 100 | < 100 |
| Cc1nc(N[C@H](C)c2cccc(C(F)(F)CO)c2)c2cc(O[C@H]3CCN(C)C3)c3c(cnn3C)c2n1 [Example 41, 2-(3-((R)-1-((2,7-dimethyl-6-(((S)-1-methylpyrrolidin-3-yl)oxy)-7H-pyrazolo[3,4-h]quinazolin-4-yl)amino)ethyl)phenyl)-2,2-difluoroethan-1-ol] | < 100 | < 100 |
| C[C@@H](Nc1nc2ccnn2c2cc(=O)n(C3CCN(S(C)(=O)=O)CC3)cc12)c1cccc(C(F)(F)CO)c1 [Example 67, (R)-5-((1-(3-(1,1-difluoro-2-hydroxyethyl)phenyl)ethyl)amino)-7-(1-(methylsulfonyl)piperidin-4-yl)pyrazolo[1,5-a]pyrido[3,4-e]pyrimidin-8(7H)-one] | < 100 | 100 to 500 |
| Cc1nc(N[C@H](C)c2cccc(C(F)(F)CO)c2)c2cc(-c3ccc(=O)n(C)c3)c3nn(C(F)(F)F)cc3c2n1 [Example 34, 5-(4-{[(1R)-1-[3-(1,1-difluoro-2-hydroxyethyl)phenyl]ethyl]amino}-2-methyl-8-(trifluoromethyl)-8H-pyrazolo[3,4-h]quinazolin-6-yl)-1-methyl-1,2-dihydropyridin-2-one] | 100 to 500 | 100 to 500 |
| COc1cc2c(cc1O[C@H]1CCOC1)c(N[C@H](C)c1cccc(C(F)(F)F)c1)nc1nccn12 [Example 58, 8-methoxy-7-(((S)-tetrahydrofuran-3-yl)oxy)-N—((R)-1-(3-(trifluoromethyl)phenyl)ethyl)imidazo[1,2-a]quinazolin-5-amine] | < 100 | < 100 |
| CC(=O)N1CC[C@H](Oc2cc3c(N[C@H](C)c4cccc5c4CCC5(F)F)nc(C)nc3n3cnnc23)C1 [Example 21, 1-((S)-3-((4-(((R)-1-(1,1-difluoro-2,3-dihydro-1H-inden-4-yl)ethyl)amino)-2-methyl-[1,2,4]triazolo[4′,3′:1,6]pyrido[2,3-d]pyrimidin-6-yl)oxy)pyrrolidin-1-yl)ethan-1-one] | < 100 | < 100 |
| Cc1nc(N[C@H](C)c2cccc(C(F)(F)CO)c2)c2cc(N3CCC(O)C3)c3c(cnn3C)c2n1 (stereo partly drawn) [Example 42, 1-(4-{[(1R)-1-[3-(1,1-difluoro-2-hydroxyethyl)phenyl]ethyl]amino}-2,7-dimethyl-7H-pyrazolo[3,4-h]quinazolin-6-y)pyrrolidin-3-ol] | < 100 | < 100 |

From patent US20240109891A1, “NOVEL SUBSTITUTED TRICYCLIC AZA-HETEROCYCLES AS SOS1 INHIBITORS” (Viva Star Biosciences (Suzhou) Co., Ltd., priority 2021, published 2024)
